# Measured values published in ChEMBL document CHEMBL3507680, “University of Dundee, Gates Library screen for HepG2 cell viability”.
# Experiment: Human HepG2 cell viability assay in 384 well format
# Assay type: toxicity, cell-based
# Parameters: dose 125 nL, time 70.5 hour; cytotoxicity at 70.5 h: concentration not given beside the values
# Details: HepG2 cells, read-out: Inhibition
row,SMILES,cytotoxicity at 70.5 h
1,CS(=O)(=O)NCc1cncc2c1CCN(CC1CCOC1)C2 (centres undefined),2.49%
2,COC(=O)N1C[C@H]2CC[C@@H]1CN(Cc1ccncc1)C2,-14.2%
3,CC(C)C1SCC(=O)Nc2c1cnn2-c1ccc(Cl)cc1F (centres undefined),0.678%
4,CC(O)CN1CCC(CNCc2ccc(C#N)cc2)CC1 (centres undefined),0.277%
5,CC(Cn1cccn1)NCc1csc(-c2ccccc2F)n1 (centres undefined),-15.5%
6,CCN(Cc1cc(F)ccc1Cl)C1CCS(=O)(=O)C1 (centres undefined),29.9%
7,CC(C)C(C#N)N1CCN(Cc2nccn2CC(F)(F)F)CC1 (centres undefined),-10.7%
8,CC(C)n1nc(CNc2ncccn2)c2c1CN(C1CCOCC1)CC2,-17.3%
9,COc1cnc(N2CCC(Oc3ccccc3OC)(C(=O)O)CC2)nc1,-3.07%
10,CC(=O)N1CC[C@H](c2nc3cc(C)ccc3o2)C1,0.212%
11,O=S(=O)(Cc1ccccc1)NCCc1nnc2n1CCC2,-7.99%
12,O=C(c1c[nH]cn1)N1CCCn2c(nnc2Cn2cccc2)C1,-1.3%
13,CC(O)(CNc1ccccn1)c1ccccc1 (centres undefined),19.5%
14,CN(Cc1c(F)cccc1Cl)C(=O)CN(C)C1CCc2ccccc21 (centres undefined),-5.53%
15,CC(C)[C@@H]1CN(C(=O)C2(c3ccccc3)CC2)C[C@H]1C(=O)O,-3.69%
16,COCC[C@]1(O)CCN(Cc2nc(C(C)C)cs2)C[C@H]1C,-6.41%
17,CCN(CCC(=O)OC)C(=O)c1cc(F)cc2[nH]cnc12,0.0493%
18,Cc1noc(C)c1C(=O)N(Cc1ccsc1)CC1CCCO1 (centres undefined),3.1%
19,Cc1nc(C)n(CC2CCCN2CC(=O)NCCc2ccsc2)n1 (centres undefined),3.16%
20,Cn1cnc2c1C(COCC1CCOCC1)CN(C(=O)C1CC=CC1)C2 (centres undefined),-2.11%
21,CC(C)CN1C[C@H]2C[C@H](C(=O)NCc3cccnc3)[C@@H](C1)O2,2.54%
22,Cc1cc(C)n(CC2CCCN2C(=O)CCc2ccncc2)n1 (centres undefined),-6.13%
23,CCOC(=O)C1(Cc2cccc(OC)c2)CCCN(Cc2ncc[nH]2)C1 (centres undefined),22%

row,SMILES,cytotoxicity at 70.5 h
1,Cc1cccc(-c2nccn2C2CC(=O)N(C(C)C)C2)n1 (centres undefined),0.181%
2,CNCC(=O)N1CC(c2cc(Nc3ncccn3)nc(C)n2)C1,-20.3%
3,O=C([C@H]1CCCO1)N1CCc2ncc(CN3CCOCC3)n2CC1,-11.9%
4,N#CCCN(CCC#N)C(=O)CN(C1CC1)C1CCc2ccccc21 (centres undefined),-2.92%
5,CSc1ccc2cc(CN(C)CCCN(C)C)c(=O)[nH]c2c1,-11.2%
6,O=C(CN1CCc2c(ncn2C2CC2)C1)NC1CCOCC1,-10.3%
7,CNC(=O)[C@@H]1C[C@@H](N)CN1Cc1ccc2cccc(OC)c2n1,-2.31%
8,Cc1cc(C)cc(N2CCN(Cc3cccc(CCN)c3)CC2=O)c1,-2.46%
9,COc1ccc(Cl)cc1CC(=O)NS(=O)(=O)c1ccc(C(N)=O)cc1,-3.68%
10,Cc1ncccc1OC1(C(=O)NCCC2CCCN2C)CCNCC1 (centres undefined),13.7%
11,Nc1cc(-c2cccc3ccnn23)ccn1,-2.42%
12,COc1ccccc1CC(=O)NS(=O)(=O)c1ccc(C(N)=O)cc1,-12.7%
13,CCC(NC(=O)c1ccoc1)c1ccccc1OCC(=O)N1CCCC1 (centres undefined),-3.93%
14,N#Cc1ccc(N2CCN(c3nccs3)CC2)nc1,-0.838%
15,CNc1nc(C(=O)N2CCCC(c3nccn3CC3CCC3)C2)cs1 (centres undefined),8.97%
16,CO[C@@H]1CCN(Cc2cccs2)[C@H]1Cc1ccncc1,-0.408%
17,Cc1nnc(NC(=O)NCc2ccc(OC(C)C)nc2)s1,20.6%
18,Cc1n[nH]c(C)c1CCNC(=O)Nc1ccc(S(C)(=O)=O)cc1,-20%
19,CC(C)CNC(=O)c1cc(Br)c2c(c1)OCCO2,-7.77%
20,CCc1nnc2ccc(NCC3(O)CCOCC3)nn12,-7.18%
21,Cc1csc(NC(=O)c2cnc(C3CCCN(C)C3)cn2)n1 (centres undefined),-8.15%
22,CN(Cc1cncnc1)[C@@H]1CN(C(=O)C2CC2)[C@@H]2CCCO[C@H]12,-3.07%
23,O=C(NC1CCC(O)CC1)c1cnc2c(cnn2C2CCCC2)c1 (centres undefined),-0.508%

row,SMILES,cytotoxicity at 70.5 h
1,OC(c1ccccn1)C1CCN(Cc2cc3n(n2)CCNC3)CC1 (centres undefined),17.1%
2,CCNC(=O)CCC(=O)NC(C)Cc1ccccc1Br (centres undefined),4.19%
3,CC(C)(C)C(O)CN1CCN(Cc2cccc(C#N)c2)CC1 (centres undefined),14.7%
4,Cc1nc(N2CCOCC2)nc2c1CN(C(=O)C(C)C)CC2,4.55%
5,CC(=O)N1CCCN(Cc2cc(F)cc(Br)c2)CC1,21%
6,COc1c(C(=O)NCC2CCCO2)nnn1Cc1ccccc1 (centres undefined),-3.19%
7,NC(c1ccccc1)c1ccc(OC(F)F)cc1 (centres undefined),6.42%
8,CCn1ccnc1CN(C)C1CCCN(CCCc2ccccc2)C1 (centres undefined),18.6%
9,Cc1nc(CN(C)c2nccc(N(C)C)n2)cs1,-0.0733%
10,Cc1ccc(N2CC[C@@H]3CN(Cc4cc[nH]n4)C[C@@H]3C2)nn1,-2.82%
11,CCc1ccc(C(NC(=O)CCS(C)(=O)=O)C(C)(C)C)o1 (centres undefined),-8.82%
12,CCc1ncc(CN[C@@H]2CCCN(C(C)=O)[C@H]2c2ccc(C)s2)cn1,-6.59%
13,Cc1cc(C)n(CCC(=O)N2CCCC(c3nc(C(C)C)no3)C2)n1 (centres undefined),-4.86%
14,COc1ccccc1-c1noc(CNc2ccc(F)cc2OCCO)n1,9.78%
15,c1cncc(-c2noc(CN3CCCCC3Cn3cccn3)n2)c1 (centres undefined),1.66%
16,Cc1ccc(-n2nnc(CC(=O)N3CCN(C(C)C)CC3)c2C)cc1,-10.5%
17,O=C(O)C1(Cc2ccc(F)cc2F)CCCN(Cc2ccccn2)C1 (centres undefined),-5.82%
18,Cc1nc(Nc2nccs2)cc(C2CCCN2C2CCOCC2)n1 (centres undefined),-8.39%
19,CC(C)=CCN1CCC(c2nnc(CN3CCN(C)CC3)n2C)CC1,35%
20,CO[C@H]1CN(C(=O)c2ccc3c(c2)OCO3)[C@@H]2COC[C@H]12,0.574%
21,Cc1cc(CCC(=O)N2CCC(O)CC2)ccc1Br,-0.947%
22,COc1cccc(CC(=O)N2CCC(c3ccn4nccc4n3)CC2)c1,-3.73%
23,CN(C)C(=O)c1nc(CN2C(=O)OC[C@@H]2c2ccccc2)no1,15.9%

row,SMILES,cytotoxicity at 70.5 h
1,CCc1ccc(NC(=O)N2C[C@H]3C[C@H](C(=O)NC4CCC4)[C@@H](C2)O3)cc1,8.99%
2,CC(C)N(C)S(=O)(=O)N1CCCC1CC(=O)c1cccs1 (centres undefined),-0.315%
3,COc1cc(CNc2ccc(Cl)cc2)ccc1OCC(=O)O,-19.8%
4,C[C@]1(O)CN(Cc2ncccc2F)CC[C@@H]1Oc1ccccc1,-7.87%
5,O=C([C@H]1C[C@@H]2CCN(C3CCOCC3)C[C@@H]2O1)N1CCOCC1,-5.58%
6,COc1cccc(CNCc2c(C)nc3sc(C)cn23)c1OC,-1.69%
7,CO[C@H]1CN(Cc2ccccc2F)[C@@H]2CCCO[C@H]12,-1.13%
8,Cc1cnn(CC(C)NCc2nc(-c3cccs3)no2)c1 (centres undefined),-7.53%
9,COc1cc(S(=O)(=O)N2CCc3ccc(Cl)cc32)cc(C(=O)O)c1OC,-8.43%
10,COCC1CCN(C(=O)c2cn(Cc3cccc(C(F)(F)F)c3)nn2)C1 (centres undefined),-12.5%
11,CC(NCCN1CCN(C(=O)C2CCCC2)CC1)c1cnn(C)c1 (centres undefined),5.6%
12,O=C(c1cncs1)N1CCc2[nH]nc(Nc3ccccc3)c2C1,-3.16%
13,CCC(CC)(CNC(C)=O)NC(C)c1ccccc1 (centres undefined),3%
14,CCn1cc(NC(=O)NCC(O)CN2CCc3ccccc3C2)cn1 (centres undefined),11.8%
15,O=C(CCNC1(c2nccs2)CCCC1)N1CCOCC1,7.56%
16,CC[C@@H]1N(Cc2ccncc2)CCC[C@]12CCC(=O)N2C,-20.1%
17,COc1ccc(-c2cc(N)ccn2)c(OC)c1OC,-9.71%
18,CS(=O)(=O)N1CCOC(CNC(=O)c2cccc(C#N)c2)C1 (centres undefined),3.98%
19,CCN1CC(COC(=O)c2cc(C)nn2CC)CC1=O (centres undefined),-7.36%
20,O=C(O)[C@@H]1CN(C(=O)CC2CCCC2)C[C@H]1c1ccc(F)cc1,-6.35%
21,N#CCCCS(=O)(=O)NC(=O)c1ccccc1F,-0.732%
22,Cc1ncsc1-c1nnc(C2CCN(Cc3cccc(F)c3F)CC2)o1,38.7%
23,O=C(CN1CCCC1)Nc1c2c(cc3c1CCC3)CCC2,-4.72%

row,SMILES,cytotoxicity at 70.5 h
1,CCC(CO)N(Cc1cccnc1)C(=O)c1ccncc1F (centres undefined),-9.31%
2,Cc1ccc2cc(C(=O)N3CCC(Nc4cccnn4)CC3)[nH]c2c1,21.4%
3,CCCc1cc(C(=O)N2CCCC(n3ccnc3C)C2)[nH]n1 (centres undefined),32.7%
4,O=C(C1CCCN(CCc2ccc3c(c2)CCO3)C1)N1CCCC1 (centres undefined),44.9%
5,Cn1ccc(C(=O)N2C[C@H]3CCC[C@@]3(COCc3cccnc3)C2)n1,-0.791%
6,O=C(c1ccnnc1)N1C[C@H]2CCC[C@@]2(COCc2ccccn2)C1,-3.81%
7,COc1ccc(CN(C)Cc2cccc(C#N)c2)c(OC)c1,-3.94%
8,COc1ccccc1Oc1ncccc1CNC(=O)[C@H](C)O,-6.71%
9,CC(C)c1nccn1-c1cccc(C2CCCN(S(=O)(=O)N(C)C)C2)n1 (centres undefined),-3.37%
10,COc1cc(CNc2nc(N3CCOCC3)ns2)cc(OC)c1OC,-5.63%
11,CN(C)c1ncc(-c2ccc(C(N)=O)cc2)c(C2CNCCO2)n1 (centres undefined),-4.35%
12,CCN(Cc1ccccc1)C1CCN(c2cc(C)nn2C)C1=O (centres undefined),-8.27%
13,CN(C)C(=O)N1CCn2nc(CNC(=O)CCc3ccccn3)cc2C1,13.6%
14,CN(C)CCCNCC1CCOC(C)(C)C1 (centres undefined),-3.4%
15,CC(C)c1noc(CCC(=O)Nc2cc(F)ccc2F)n1,12.9%
16,O=C(NC[C@H]1OC[C@@H](NC2CCC(F)(F)CC2)[C@@H]1O)c1ccccc1,-0.0244%
17,Clc1cccnc1N1CCC(C2CCN(Cc3cccnc3)CC2)C1 (centres undefined),25.7%
18,COCCN1CCC(CNC(=O)C2(c3ccccc3)CCC2)C1 (centres undefined),-3.28%
19,COC(=O)NCC1CCC2(CCNCC2)O1 (centres undefined),28.3%
20,CCOc1ncccc1Cn1cc(-c2cncnc2)nn1,-15.8%
21,CN(C)C(=O)CN1CCCCC1c1nc(N)ncc1-c1ccccc1 (centres undefined),-17.6%
22,Cc1ccc(F)cc1NC(=O)CCn1cncn1,-8.38%
